{
  "source": "paper PMC6158189",
  "about": "“A pharmacological probe identifies cystathionine β-synthase as a new negative regulator for ferroptosis” (Cell Death & Disease, 2018)",
  "key": {"[1]": {"target": "T1, CBS-FL mutant (293T-CBS Q222A) (Homo sapiens, UniProt P35520, Q222A)", "T1 construct": "human CBS or hCSE full-length (CBS-FL or CSE) was subcloned into pGEX-KG, pcDNA3 or pCDH vector; expressed in transfected cells", "assay": "H2S in HEK293T cells stably expressing CBS Q222A (AzMC probe)", "assay_type": "cell-based", "settings": "1 mM or 2 mM HA, 8 h", "procedure": "HEK293T cells were transiently transfected with empty vector (EV, i and ii), hCBS-FL (iii and iv) or hCSE (v and vi) plasmids, followed by incubation with DMSO (i–iii and v) or 10 μM CH004 (iv and vi) for 8 h before staining with 50 μM AzMC, a H2S-specific probe (“Materials and Methods” section). For larger fluorescent and bright-field images, please see Supplementary Figure 4. The expression levels of hCBS or hCSE in HEK293T cells after transient transfections were determined by western blotting using an anti-CBS antibody (3E1, 1:2000; Abnova) or anti-CSE antibody (1:500, GeneTex). The densities of protein bands for hCBS or hCSE in the blots were quantified with the ImageJ software (National Institutes of Health, Bethesda, MD, USA) and expressed as ratios of respective control (EV group). […] The fluorescent images of the H2S (blue) were accordingly quantified (“Materials and Methods” section) with ImageJ. […] A representative fluorescence image from three independent experiments is shown. […]\nH2S levels in living cells were detected using a H2S-specific fluorescent probe according to a protocol described previously[31],[55]. […] After incubation with 50 μM AzMC at 37 °C for 30 min, the cells were washed 4 times with PBS, and the fluorescent images were recorded with excitation by 405 nm laser by using a A1Si (Nikon) confocal microscope. […]"}, "hCBS Q222A": {"target": "T2, hCBS Q222A (Homo sapiens, UniProt P35520, Q222A)", "T2 construct": "hCBS-413 (a C-terminal truncated hCBS 1–413); GST (N); made in house; host or cells: E. coli BL21", "T2 sequence (P35520 1-413 Q222A)": "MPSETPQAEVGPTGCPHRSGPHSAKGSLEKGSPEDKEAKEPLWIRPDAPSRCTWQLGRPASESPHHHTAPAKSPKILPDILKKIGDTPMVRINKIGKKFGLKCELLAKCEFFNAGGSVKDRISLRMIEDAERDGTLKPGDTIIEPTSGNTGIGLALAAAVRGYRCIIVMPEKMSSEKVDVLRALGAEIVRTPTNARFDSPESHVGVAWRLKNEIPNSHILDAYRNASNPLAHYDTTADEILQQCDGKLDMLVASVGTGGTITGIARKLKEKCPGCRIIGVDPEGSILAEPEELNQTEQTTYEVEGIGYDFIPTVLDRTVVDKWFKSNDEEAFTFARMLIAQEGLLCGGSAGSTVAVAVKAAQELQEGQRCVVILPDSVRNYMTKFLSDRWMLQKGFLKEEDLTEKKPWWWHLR", "assay": "purified hCBS mutant enzyme assay", "assay_type": "biochemical", "settings": "1 mM HA, 60 mM Cys, 1.2 μM CBS-413 Q222A", "procedure": "The IC50 values of CH004 for hCBS-413, hCBS-413 mutants, hCBS-FL, hCSE or hDDC were determined according to the standard assay conditions otherwise indicated.\nFigure S6. […] HEK293T cells stably expressing CBS Q222A mutant (293T-CBS Q222A) were treated with 0 (DMSO control), 5 or 10 μM CH004 for 8 h before staining with the AzMC to detect H2S. The overlaid images of fluorescent and bright-field images are shown in the left panel, and the corresponding fluorescent (blue, H2S) and bright-field images are shown in the middle and right panels, respectively. Bars: 50 μm. [picture] Figure S7. The CH004-insensitive CBS Q222A mutant can be inhibited by HA. (A) HEK293T cells stably expressing CBS Q222A mutant (293T-CBS Q222A) were treated with 0 (DMSO, control), 5 or 10 μM of CH004, 1 mM or 2 mM of HA for 8 h before staining with the AzMC to detect H2S. The overlaid images of fluorescent and bright-field images are shown in the upper panel, and the corresponding fluorescent (blue, H2S) and bright-field images are shown in the middle and lower panels, respectively. Bars: 50 μm. (B) Quantification of the mean fluorescent density of H2S (blue). The intensity of blue light of the fluorescent images was quantified by ImageJ software, quantified and deduced the background signal in HEK293T-EV cells (Supplementary Figure S3B), normalized by the corresponding cell area and expressed as percentages of control (DMSO group, 100%). Means ± SDs (n=3). One-way ANOVA with Bonferroni post-tests was used for the analysis. *, p< 0.05; **, p< 0.01; n.s. no significance. The images are one representative from three independent experiments. (C) The inhibitory effect of 1 mM HA on purified CBS Q222A mutant. The assay was performed using 60 mM Cys and 1.2 μM CBS-413 Q222A mutant. The data were expressed as percentages of control (DMSO, 100%). Means ± SDs (n=4). [picture]\nTable S2. Inhibitory effects of CH004 on hCBS WT and mutants."}},
  "data": [
    {"smiles": "NO", "note": "[HA, hydroxylamine, reference compound]", "values": [
      {"measurement": "effect on H2S", "setting": "[1]", "result": "substantially decreased"},
      {"measurement": "inhibitory effect on activity of purified CBS Q222A mutant", "setting": "hCBS Q222A", "result": "could be suppressed"}
    ]}
  ]
}
